The values that follow come from patent US8916554B2, “Amino-derivatives as novel inhibitors of histone deacetylase” (Janssen Pharmaceutica N.V., priority 2002, dated 2014).

Experiment in data set [1]: not given
This is another data set of the same source.

In data set [2] the test system is human A2780 ovarian carcinoma cells. In words: Determination of antiproliferative activity on A2780 cells (MTT). Format: cell-based. The note with it: four days of incubation; for IC50: Homo sapiens, 96 h, read-out: Cellular activity pIC50 (converted). As for the experimental part:
Cellular activity of the compounds of formula (I) was determined on A2780 tumour cells using a colorimetric assay for cell toxicity or survival (Mosmann Tim, Journal of Immunological Methods 65: 55-63, 1983)(see example C.2).
All compounds tested were dissolved in DMSO and further dilutions were made in culture medium. Final DMSO concentrations never exceeded 0.1% (v/v) in cell proliferation assays. Controls contained A2780 cells and DMSO without compound and blanks contained DMSO but no cells. MTT was dissolved at 5 mg/ml in PBS. A glycine buffer comprised of 0.1 M glycine and 0.1 M NaCl buffered to pH 10.5 with NaOH (1 N) was prepared (all reagents were from Merck).
The human A2780 ovarian carcinoma cells (a kind gift from Dr. T. C. Hamilton [Fox Chase Cancer Centre, Pennsylvania, USA]) were cultured in RPMI 1640 medium supplemented with 2 mM L-glutamine, 50 μg/ml gentamicin and 10% fetal calf serum. Cells were routinely kept as monolayer cultures at 37° C. in a humidified 5% CO2 atmosphere. Cells were passaged once a week using a trypsin/EDTA solution at a split ratio of 1:40. All media and supplements were obtained from Life Technologies. Cells were free of mycoplasma contamination as determined using the Gen-Probe Mycoplasma Tissue Culture kit (supplier: BioMérieux).
Cells were seeded in NUNC™ 96-well culture plates (Supplier: Life Technologies) and allowed to adhere to the plastic overnight. Densities used for plating were 1500 cells per well in a total volume of 200 μl medium. After cell adhesion to the plates, medium was changed and drugs and/or solvents were added to a final volume of 200 μl. Following four days of incubation, medium was replaced by 200 μl fresh medium and cell density and viability was assessed using an MTT-based assay. To each well, 25 μl MTT solution was added and the cells were further incubated for 2 hours at 37° C. The medium was then carefully aspirated and the blue MTT-formazan product was solubilized by addition of 25 μl glycine buffer followed by 100 μl of DMSO. […] Within an experiment, the results for each experimental condition are the mean of 3 replicate wells. For initial screening purposes, compounds were tested at a single fixed concentration of 10^−6 M. For active compounds, the experiments were repeated to establish full concentration-response curves. For each experiment, controls (containing no drug) and a blank incubation (containing no cells or drugs) were run in parallel. The blank value was subtracted from all control and sample values. For each sample, the mean value for cell growth (in absorbance units) was expressed as a percentage of the mean value for cell growth of the control. […] Herein the effects of test compounds are expressed as pIC50 (the negative log value of the IC50-value).

Data set [3] can be described thus: Kinetic solubility in aqueous media. The format is physicochemical. The settings on record: aqueous buffer, kinetic from dmso stock; phosphate citrate buffer pH 7.4, turbidity by nephelometer; read-out: Solubility Score. As to the method: Kinetic solubility in aqueous media measures the ability of a compound to stay in aqueous solution upon dilution (see example C.3).
DMSO-stock solutions are diluted with a single aqueous buffer solvent in 3 consecutive steps. For every dilution turbidity is measured with a nephelometer.
In the first dilution step, 10 μl of a concentrated stock-solution of the active compound, solubilized in DMSO (5 mM), was added to 100 μl phosphate citrate buffer pH 7.4 and mixed. In the second dilution step, an aliquot (20 μl) of the first dilution step was further dispensed in 100 μl phosphate citrate buffer pH 7.4 and mixed. Finally, in the third dilution step, a sample (20 μl) of the second dilution step was further diluted in 100 μl phosphate citrate buffer pH 7.4 and mixed. All dilutions were performed in 96-well plates. Immediately after the last dilution step the turbidity of the three consecutive dilution steps were measured with a nephelometer. Dilution was done in triplicate for each compound to exclude occasional errors. Based on the turbidity measurements a ranking is performed into 3 classes. Compounds with high solubility obtained a score of 3 and for this compounds the first dilution is clear. Compounds with medium solubility obtained a score of 2. For these compounds the first dilution is unclear and the second dilution is clear. […] The solubility of 14 compounds was measured.

The target of data set [4] is histone deacetylase (HDAC), HeLa nuclear extracts. In words: In vitro assay for inhibition of histone deacetylase. Format: biochemical. Further details: key: pIC50 = negative log of IC50. The note with it: [3H]acetylated histone H4 peptide substrate. As to the method:
The in vitro assay for inhibition of histone deacetylase (see example C.1) measures the inhibition of HDAC enzymatic activity obtained with the compounds of formula (I).
HeLa nuclear extracts (supplier: Biomol) were incubated at 60 μg/ml with 2×10^−8 M of radiolabeled peptide substrate. As a substrate for measuring HDAC activity a synthetic peptide, i.e. the amino acids 14-21 of histone H4, was used. The substrate is biotinylated at the NH2-terminal part with a 6-aminohexanoic acid spacer, and is protected at the COOH-terminal part by an amide group and specifically [^3H]acetylated at lysine 16. The substrate, biotin-(6-aminohexanoic)Gly-Ala-([^3H]-acetyl-Lys-Arg-His-Arg-Lys-Val-NH2), was added in a buffer containing 25 mM Hepes, 1 M sucrose, 0.1 mg/ml BSA and 0.01% Triton X-100 at pH 7.4. After 30 min the deacetylation reaction was terminated by the addition of HCl and acetic acid. (final concentration 0.035 mM and 3.8 mM respectively). After stopping the reaction, the free ^3H-acetate was extracted with ethylacetate. After mixing and centrifugation, the radioactivity in an aliquot of the upper (organic) phase was counted in a β-counter.
For each experiment, controls (containing HeLa nuclear extract and DMSO without compound), a blank incubation (containing DMSO but no HeLa nuclear extract or compound) and samples (containing compound dissolved in DMSO and HeLa nuclear extract) were run in parallel. In first instance, compounds were tested at a concentration of 10^−5M. […] In each test the blank value was substracted from both the control and the sample values. The control sample represented 100% of substrate deactylation. For each sample the radioactivity was expressed as a percentage of the mean value of the controls. […] Herein the effects of test compounds are expressed as pIC50 (the negative log value of the IC50-value).

In brackets after ≈: the same amount, converted by molar mass. Read-outs that look alike come from different tables or passages of the source.

Compound `O=C(NO)c1ccc(NC2CCCN(S(=O)(=O)c3ccc(-c4ccccc4)cc3)CC2)nc1` (stereo not shown) (hydrate or solvate) [Co. No. 2] had a melting point of 115 °C.

For `O=C(NO)c1ccc(NC2CCCN(S(=O)(=O)c3ccc4c(c3)CCCC4)CC2)nc1` (stereo not shown) (hydrate or solvate) [Co. No. 6], the melting point is 115 °C.

Turning to `COc1cc(N)c(Cl)cc1C(=O)NC1CCN(CCCOc2ccc(F)cc2)CC1OC` (stereo not shown) [Cisapride], the “% metabolism” value in data set [1] (human, 15 min, 5 μM) was found to be 45%.

`O=C(NO)c1ccc(NC2CCN(S(=O)(=O)c3ccc4ccccc4c3)CC2)nc1` [Co. No. 1]: the melting point turned out to be 160 °C. Moreover, the IC50 in data set [2] was 2.45 µM. The solubility in data set [3] was > 454 µM. In addition, the “Enzyme activity pIC50” value in data set [4] stood at 7.676.

With `O=C(NO)c1ccc(NC2CCCN(S(=O)(=O)c3ccc(-c4ccccc4)cc3)CC2)nc1` (stereo not shown) [Co. No. 2], the IC50 in data set [2] is 1.57 µM. Also, the solubility in data set [3] was < 75.8 µM. The “Enzyme activity pIC50” value in data set [4] is 6.871.

In turn, `O=C(NO)c1cnc(NC2CCCN(S(=O)(=O)c3ccc4ccccc4c3)CC2)nc1` (stereo not shown) [Co. No. 3] came in with a melting point of 140 °C. For the same compound, in data set [2], the IC50 is 3.12 µM. Besides, in data set [3], the solubility is 75.8 to 454 µM (≈ 33.5 to 201 µg/mL). In data set [4], the “Enzyme activity pIC50” value came to 7.306.

Compound `O=C(NO)c1cnc(NC2CCCN(S(=O)(=O)c3ccc(-c4ccccc4)cc3)CC2)nc1` (stereo not shown) [Co. No. 4] returned a melting point of 227 °C. For the same compound, in data set [2], the IC50 was 1.45 µM. Besides, in data set [3], the solubility was < 75.8 µM. Also, the “Enzyme activity pIC50” value in data set [4] is 7.314.

In the case of `O=C(NO)c1cnc(NC2CCN(S(=O)(=O)c3ccc4ccccc4c3)CC2)nc1` [Co. No. 5], the melting point stood at 256 °C. For the same compound, the IC50 in data set [2] was 3.37 µM. In data set [3], the solubility is > 454 µM. Also, in data set [4], the “Enzyme activity pIC50” value is 7.525.

`O=C(NO)c1ccc(NC2CCCN(S(=O)(=O)c3ccc4c(c3)CCCC4)CC2)nc1` (stereo not shown) [Co. No. 6]: in data set [2], the IC50 was 4.52 µM. The solubility in data set [3] was in the range of 75.8 to 454 µM (≈ 33.7 to 202 µg/mL). The “Enzyme activity pIC50” value in data set [4] was 6.853.

In turn, `O=C(NO)c1cnc(NCC2CCN(S(=O)(=O)c3ccc4ccccc4c3)CC2)nc1` [Co. No. 7] registered a melting point of 240 °C. The IC50 in data set [2] was 7.78 µM. The solubility in data set [3] was < 75.8 µM. Further, in data set [4], the “Enzyme activity pIC50” value stood at 7.408.

With `O=C(NO)c1cnc(NCC2CCCN(S(=O)(=O)c3ccc4ccccc4c3)C2)nc1` (stereo not shown) [Co. No. 8], the melting point was 137 °C. In data set [2], the IC50 is 1.9 µM. The solubility in data set [3] is < 75.8 µM. The “Enzyme activity pIC50” value in data set [4] is given as 7.23.

`O=C(NO)c1cnc(NCC2CN(S(=O)(=O)c3ccc4ccccc4c3)CCO2)nc1` (stereo not shown) [Co. No. 9] showed a melting point of 226 °C. Also, in data set [2], the IC50 was 2.15 µM. The solubility in data set [3] is > 454 µM. In addition, the “Enzyme activity pIC50” value in data set [4] stood at 7.161.

As for `O=C(NO)c1cnc(NC2CCN(S(=O)(=O)c3ccc(-c4ccccc4)cc3)CC2)nc1` [compound 14], the “Cellular activity pIC50” value in data set [2] was 5.201. The “Enzyme activity pIC50” value in data set [4] is 7.077.

For the compound `CCCO` [propanol], the “% metabolism” value in data set [1] (after 15 min of incubation with active microsomes (1 mg/ml), compound 5 μM) stood at 25%.
